Here are results for 5 compounds from patent publication EP0363326A2, “Fungicidal amines” (SANDOZ AG, priority 1988, dated 1990).

Experiment [1] has as its system Pyrenophora graminea. The experiment in a line: inhibition zone test, treated barley seeds on agar containing the fungus. Type of experiment: cell-based. Particulars: seed dressing, evaluated one week after placing on agar. On the procedure: (§1) The efficacy against seed-borne diseases can be illustrated by the inhibition zone test: single seeds treated with a seed dressing formulation comprising the compound to be tested e.g. with the seed dressing formulation according to Example 2 (hereinafter described) are placed on agar containing the seed-borne fungus. […] The size of the inhibition zone is evaluated one week after the seed has been placed on the agar. The activity is expressed as the concentration (in g per 100 kg seed) resulting in 90 % or more growth inhibition of the fungal mycelium.

Experiment [2] deals with Pseudocercosporella herpotrichoides. To be noted: causal agent of eyespot of cereals; cited from earlier work.
Another experiment concerns Gerlachia nivalis. The experiment in a line: inhibition zone test, treated wheat seeds on agar containing the fungus. Type of experiment: cell-based. To be noted: seed dressing, evaluated one week after placing on agar. On the procedure:
as §1

Another experiment concerns Cochliobulus sativus. The experiment in a line: inhibition zone test, treated barley seeds on agar containing the fungus. Type of experiment: cell-based. Particulars: seed dressing, evaluated one week after placing on agar. On the procedure: as §1
The next experiment has as its system Pyrenophora teres. The experiment is described as above. To be noted: seed dressing, evaluated one week after placing on agar. The class given is cell-based. Here is the method:
as §1

A further experiment concerns Septoria nodorum. The experiment in a line: inhibition zone test, treated wheat seeds on agar containing the fungus. Type of experiment: cell-based. Particulars: seed dressing, evaluated one week after placing on agar. On the procedure:
as §1

Experiment [3] deals with Pyrenophora graminea. The experiment in a line: Indoor pot test, spring barley seed dressing. To be noted: dosage 8 g a.i./100kg seed, growth chamber 10°C, visual evaluation 60 days after dressing and sowing. The class given is in vivo. On the procedure: (§2) Spring barley seed naturally infested by Pyrenophora graminea are treated with a seed dressing formulation according to Example 1 and sown in pots filled with a substrate equivalent to a sandy loam in a growth chamber at 10°C with 14-17 hours daylight. The determination of the fungal control involves a visual evaluation 60 days after said dressing and sowing.

Experiment [4] has as its system Pyrenophora graminea. The experiment in a line: Outdoor pot test, spring barley seed dressing. Type of experiment: in vivo. To be noted: dosage 8 g a.i./100kg seed. Here is the method: as §2
(§3) Analogous tests are run outdoors under naturally occurring wheather conditions with spring barley infected by Pyrenophora graminea and Ustilago nuda. […]

Another experiment deals with Ustilago nuda. The experiment is described as follows: Outdoor pot test, spring barley seed dressing. The class given is in vivo. Particulars: dosage 8 g a.i./100kg seed. On the procedure:
as §2, §3

In the next experiment the test system is Fusarium culmorum. The experiment is described as follows: inhibition zone test, treated wheat seeds on agar containing the fungus. Type of experiment: cell-based. Particulars: seed dressing, evaluated one week after placing on agar. On the procedure: as §1

Where only a bound is given, the exact number is not on record here.

With `CN(C/C=C/C#CC(C)(C)C)Cc1cccc2ccccc12` [CH₃, terbinafine], the “Concentration (g/100 kg Seed) providing ≧90% control” value in the experiment with Pyrenophora graminea [1] and in the experiment on Gerlachia nivalis was under 5 g/100 kg Seed throughout. Moreover, in experiment [2], the “fungicidal activity in in-vitro tests” value is reported as “fungicidal activity”.

In the case of `C=CCOC(Cn1ccnc1)c1ccc(Cl)cc1Cl` (stereo not shown) [Standard A, Imazalil], the “Concentration (g/100 kg Seed) providing ≧90% control” value with Cochliobulus sativus amounted to 4 g/100 kg Seed; in the experiment with Pyrenophora graminea [1], 8 g/100 kg Seed; in the experiment with Pyrenophora teres it was 8 g/100 kg Seed; with Septoria nodorum it was 8 g/100 kg Seed.

With `CCCC(C)(C)C#CC=CCN(C)Cc1cccc2ccccc12` [nC₃H₇, N-(6,6-Dimethyl-2-nonen-4-inyl)-N-Methyl-1-naphthylmethylamine], the “% Control indoors P. gram.” value with Pyrenophora graminea [3] is 80-90%. In addition, the “% Control outdoors P. gram.” value with Pyrenophora graminea [4] came out at 80%. Further, the “% Control outdoors U. nuda” value in the experiment on Ustilago nuda came out at 100%. Moreover, the “Concentration (g/100 kg Seed) providing ≧90% control” value is on record as 2 g/100 kg Seed in the experiment on Cochliobulus sativus; 2 g/100 kg Seed in the experiment on Pyrenophora graminea [1]; 4 g/100 kg Seed in the experiment on Pyrenophora teres; 2 g/100 kg Seed in the experiment with Gerlachia nivalis; 8 g/100 kg Seed with Fusarium culmorum; 2 g/100 kg Seed with Septoria nodorum.

In the case of `CN(C/C=C/c1ccccc1)Cc1cccc2ccccc12` [naftifine], the “fungicidal activity in in-vitro tests” value in experiment [2] is listed as “fungicidal activity”.

In the case of Guazatine, the “Concentration (g/100 kg Seed) providing ≧90% control” value in the experiment with Gerlachia nivalis came out at 8 g/100 kg Seed; with Fusarium culmorum, 4 g/100 kg Seed.
